Experimental data published in patent publication US20240360165A1, “INHIBITORS OF CYCLIN DEPENDENT KINASE 7 (CDK7)” (Syros Pharmaceuticals, Inc., priority 2016, published 2024).
Like-named read-outs stand apart in the source and are kept apart here.

Legend:
HCC70 cells = assay: Inhibition of proliferation of HCC70 cells (CyQUANT Direct Cell Proliferation Assay, 72 hour); type: cell-based, human; details: read-out: Inhibition of Proliferation of HCC70 Cells (calculated IC50)
Method in brief: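 Human triple-negative breast cancer HCC70 cells cultured at 37° C, 5% CO2, with compound for 72 hour. Anti-proliferative effect read by CyQUANT Direct Cell Proliferation Assay. Dinaciclib, a CDK inhibitor analog and triptolide served as positive controls.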

[1] = target: T1, CDK12 (aa686-1082)/Cyclin K complex (Homo sapiens, UniProt Q9NYV4); assay: CDK12 inhibition assay (Caliper/LabChip EZ Reader kinase assay); type: biochemical; details: Table 1; CDK12 (aa686-1082)/Cyclin K 50 nM, ATP 2 mM, 3 hr at 27° C.
T1 construct: CDK12 (aa686-1082)/Cyclin K complex
T1 sequence (Q9NYV4 686-1082, species assumed): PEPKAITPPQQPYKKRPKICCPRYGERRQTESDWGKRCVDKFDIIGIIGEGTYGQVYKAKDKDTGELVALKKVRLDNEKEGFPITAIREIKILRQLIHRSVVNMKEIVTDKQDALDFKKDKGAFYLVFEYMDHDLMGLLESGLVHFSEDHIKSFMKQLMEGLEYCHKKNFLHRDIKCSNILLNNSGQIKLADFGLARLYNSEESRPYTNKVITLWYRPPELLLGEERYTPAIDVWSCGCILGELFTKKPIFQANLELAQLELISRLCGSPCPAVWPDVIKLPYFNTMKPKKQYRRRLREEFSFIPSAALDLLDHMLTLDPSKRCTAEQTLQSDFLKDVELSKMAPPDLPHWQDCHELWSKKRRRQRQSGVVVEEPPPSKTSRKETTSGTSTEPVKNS
T1 sequence (O75909 whole entry partner, species assumed, the tested form may be a part): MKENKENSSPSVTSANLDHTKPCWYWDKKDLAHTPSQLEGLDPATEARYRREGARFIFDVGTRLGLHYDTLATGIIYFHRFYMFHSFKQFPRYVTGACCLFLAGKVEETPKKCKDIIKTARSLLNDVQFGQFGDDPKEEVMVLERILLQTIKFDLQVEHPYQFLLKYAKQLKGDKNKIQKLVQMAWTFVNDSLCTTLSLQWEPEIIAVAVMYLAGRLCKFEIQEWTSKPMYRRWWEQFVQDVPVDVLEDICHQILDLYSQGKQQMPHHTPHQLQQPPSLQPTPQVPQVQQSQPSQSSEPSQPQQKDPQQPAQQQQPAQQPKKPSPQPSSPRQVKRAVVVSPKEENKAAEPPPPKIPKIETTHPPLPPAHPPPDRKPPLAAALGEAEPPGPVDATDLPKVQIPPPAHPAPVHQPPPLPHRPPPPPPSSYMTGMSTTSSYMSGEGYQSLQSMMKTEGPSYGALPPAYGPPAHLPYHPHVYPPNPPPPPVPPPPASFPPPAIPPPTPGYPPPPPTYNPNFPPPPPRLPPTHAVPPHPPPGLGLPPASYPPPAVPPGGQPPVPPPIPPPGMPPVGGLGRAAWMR

A673 cells = assay: Inhibition of proliferation of A673 cells (CyQUANT, 72 hour); type: cell-based, human; details: Homo sapiens, A673, 72 h, A673 cells, 72 hour, CyQUANT; read-out: Inhibition of Proliferation of A673 Cells (calculated IC50)
Method in brief: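 Human Ewing's sarcoma A673 cells in DMEM with 10% FBS and 1 mM sodium pyruvate, 37° C, 5% CO2, treated 72 h with compound from 4 μM to […] (0.5 log dilutions). Antiproliferative effect read by CyQUANT assay.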

[2] = target: CDK7/Cyclin H/MAT1 complex (Homo sapiens, UniProt P50613); assay: CDK7 inhibition assay (Caliper/LabChip EZ Reader kinase assay); type: biochemical; details: Table 1; CDK7/Cyclin H/MAT1 6 nM, ATP 2 mM, 35 min at 27° C.
CDK7/Cyclin H/MAT1 complex, sequence (P50613 whole entry, species assumed): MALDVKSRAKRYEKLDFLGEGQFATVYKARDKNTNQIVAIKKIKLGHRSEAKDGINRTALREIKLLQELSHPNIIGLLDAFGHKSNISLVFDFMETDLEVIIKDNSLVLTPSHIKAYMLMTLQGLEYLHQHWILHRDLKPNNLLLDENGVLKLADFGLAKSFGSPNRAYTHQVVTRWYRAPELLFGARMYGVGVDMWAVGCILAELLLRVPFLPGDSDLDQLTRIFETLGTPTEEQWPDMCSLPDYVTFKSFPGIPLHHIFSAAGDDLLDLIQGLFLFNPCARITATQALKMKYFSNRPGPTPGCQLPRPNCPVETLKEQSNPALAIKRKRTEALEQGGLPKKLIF
CDK7/Cyclin H/MAT1 complex, sequence (P51946 whole entry partner, species assumed): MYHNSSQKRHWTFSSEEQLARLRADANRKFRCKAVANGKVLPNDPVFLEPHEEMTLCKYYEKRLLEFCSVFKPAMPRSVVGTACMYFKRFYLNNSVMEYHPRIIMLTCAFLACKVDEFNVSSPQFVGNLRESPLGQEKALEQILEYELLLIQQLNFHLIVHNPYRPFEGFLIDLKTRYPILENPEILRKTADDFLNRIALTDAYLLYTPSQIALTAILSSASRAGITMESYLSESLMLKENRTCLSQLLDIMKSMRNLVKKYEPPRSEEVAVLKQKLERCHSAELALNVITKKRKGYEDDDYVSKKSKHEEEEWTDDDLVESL
CDK7/Cyclin H/MAT1 complex, sequence (P51948 whole entry partner, species assumed): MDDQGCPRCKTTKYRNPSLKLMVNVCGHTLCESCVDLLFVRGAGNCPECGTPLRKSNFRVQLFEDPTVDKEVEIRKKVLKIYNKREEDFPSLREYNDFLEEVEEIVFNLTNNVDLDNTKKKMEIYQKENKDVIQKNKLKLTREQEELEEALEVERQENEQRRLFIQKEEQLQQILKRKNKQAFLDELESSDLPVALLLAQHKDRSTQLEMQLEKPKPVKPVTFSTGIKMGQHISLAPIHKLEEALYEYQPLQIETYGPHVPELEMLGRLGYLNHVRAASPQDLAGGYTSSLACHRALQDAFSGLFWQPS
Method in brief: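 A Perkin Elmer Caliper/LabChip EZ Reader (Waltham, MA) platform served as the basis for this CDK7 kinase inhibition assay. The work was carried out by Biortus Biosciences, located in Jiangyin, Jiangsu Province, P.R. of China. Each CDK studied had its own kinase assay, and compounds were evaluated for their ability to block CDK7 activity.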

CDK9/Cyclin T1 complex = CDK9/Cyclin T1 complex (Homo sapiens, UniProt P50750); assay: CDK9 inhibition assay (Caliper/LabChip EZ Reader kinase assay); type: biochemical; details: Table 1; CDK9/Cyclin T1 8 nM, ATP 2 mM, 15 min at 27° C.
CDK9/Cyclin T1 complex, sequence (P50750 whole entry, species assumed): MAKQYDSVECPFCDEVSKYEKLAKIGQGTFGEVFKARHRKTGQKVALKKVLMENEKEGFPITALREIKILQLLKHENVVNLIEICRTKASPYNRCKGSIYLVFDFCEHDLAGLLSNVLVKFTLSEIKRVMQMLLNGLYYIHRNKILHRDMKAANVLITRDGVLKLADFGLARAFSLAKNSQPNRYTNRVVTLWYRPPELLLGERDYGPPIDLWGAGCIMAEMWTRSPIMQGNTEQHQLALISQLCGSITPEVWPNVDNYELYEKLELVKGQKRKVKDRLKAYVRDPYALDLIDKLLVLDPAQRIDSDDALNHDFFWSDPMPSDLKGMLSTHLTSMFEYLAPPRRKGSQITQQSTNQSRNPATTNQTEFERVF
CDK9/Cyclin T1 complex, sequence (O60563 whole entry partner, species assumed): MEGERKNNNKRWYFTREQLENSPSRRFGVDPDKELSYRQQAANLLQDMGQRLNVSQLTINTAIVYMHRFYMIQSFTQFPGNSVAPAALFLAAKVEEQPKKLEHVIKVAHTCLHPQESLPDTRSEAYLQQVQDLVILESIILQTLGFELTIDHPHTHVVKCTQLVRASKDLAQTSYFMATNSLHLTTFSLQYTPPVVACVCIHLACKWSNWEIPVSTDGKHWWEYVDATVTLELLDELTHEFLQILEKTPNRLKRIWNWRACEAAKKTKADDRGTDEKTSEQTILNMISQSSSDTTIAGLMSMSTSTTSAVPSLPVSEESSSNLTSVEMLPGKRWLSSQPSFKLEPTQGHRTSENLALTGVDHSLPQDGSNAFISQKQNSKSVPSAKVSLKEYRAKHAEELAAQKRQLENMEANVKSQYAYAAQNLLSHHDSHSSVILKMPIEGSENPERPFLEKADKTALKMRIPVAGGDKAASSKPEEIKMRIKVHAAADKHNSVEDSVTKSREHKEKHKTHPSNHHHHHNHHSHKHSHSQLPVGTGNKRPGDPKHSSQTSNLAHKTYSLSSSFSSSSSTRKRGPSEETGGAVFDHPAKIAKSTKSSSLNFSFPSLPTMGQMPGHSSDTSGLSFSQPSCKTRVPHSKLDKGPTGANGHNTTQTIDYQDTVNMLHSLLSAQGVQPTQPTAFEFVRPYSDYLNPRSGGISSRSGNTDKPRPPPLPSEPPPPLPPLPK
Method in brief: (§1)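 Caliper/LabChip EZ Reader mobility-shift assays. CDK9/Cyclin T1 at 8 nM with 2 μM 5-FAM-CDK9tide peptide and 10 mM MgCl2; CDK2/Cyclin E1 at 0.5 nM with 2 μM 5-FAM-CDK7tide and 2 mM MgCl2.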

CDK2/Cyclin E1 complex = CDK2/Cyclin E1 complex (Homo sapiens, UniProt P24941); assay: CDK2 inhibition assay (Caliper/LabChip EZ Reader kinase assay); type: biochemical; details: Table 1; CDK2/Cyclin E1 0.5 nM, ATP 2 mM, 35 min at 27° C.
Method in brief: as §1

Row | Compound | IC50 (HCC70 cells; Homo sapiens, HCC70, 72 h) [µM] | IC50 [1] [µM] | IC50 (A673 cells) [µM] | IC50 [2] [µM] | IC50 (CDK9/Cyclin T1 complex) [µM] | IC50 (CDK2/Cyclin E1 complex) [µM] | IC50 (HCC70 cells) [µM]
1 | FC(F)(F)c1cnc(N[C@H]2CCCNC2)nc1-c1n[nH]c2ccccc12 [Compound 103] | < 0.1 | 0.02 to 0.2 | 0.02 to 0.2 | < 0.02 | 0.2 to 5 | 0.2 to 5 | 
2 | CC(C)S(=O)(=O)c1ccc2c(-c3nc(N[C@H]4CCCNC4)ncc3C(F)(F)F)c[nH]c2c1 [Compound 346, 4-(6-isopropylsulfonyl-1H-indol-3-yl)-N-[(3S)-3-piperidyl]-5-(trifluoromethyl) pyrimidin-2-amine] | 0.1 to 1 | 0.2 to 5 |  | 0.02 to 0.2 | 0.2 to 5 | 0.2 to 5 | 
3 | FC(F)(F)c1cnc(N[C@H]2CCCNC2)nc1-c1c[nH]c2cc(-c3ccc4[nH]cnc4c3)ccc12 [Compound 313] |  | 0.2 to 5 |  | < 0.02 | 0.2 to 5 | 0.2 to 5 | 0.1 to 1
4 | CC(=O)NCc1cccc(-c2ccc3c(-c4nc(N[C@H]5CCCNC5)ncc4C(F)(F)F)c[nH]c3c2)c1 [Compound 338] |  | 0.2 to 5 |  | 0.02 to 0.2 | 0.2 to 5 | 0.2 to 5 | 0.1 to 1
5 | FC(F)Sc1ccc2c(-c3nc(N[C@H]4CCCNC4)ncc3C(F)(F)F)c[nH]c2c1 [Compound 374, 4-[6-(difluoromethylsulfanyl)-1H-indol-3-yl]-N-[(3S)-3-piperidyl]-5-(trifluoromethyl) pyrimidin-2-amine] | < 0.1 | 0.02 to 0.2 |  | < 0.02 | 0.2 to 5 | 0.2 to 5 | 
6 | CC1(O)CCN(C(=O)c2ccc3c(-c4nc(N[C@H]5CCCNC5)ncc4C(F)(F)F)c[nH]c3c2)CC1 [Compound 282, (4-hydroxy-4-methyl-1-piperidyl)-[3-[2-[[(3S)-3-piperidyl]amino]-5-(trifluoromethyl)pyrimidin-4-yl]-1H-indol-6-yl] methanone] | 0.1 to 1 | 0.2 to 5 |  | < 0.02 | > 5 | 0.2 to 5 | 
7 | CN(C)S(=O)(=O)c1ccc2c(-c3nc(N[C@H]4CCCNC4)ncc3C(F)(F)F)c[nH]c2c1 [Compound 357, N,N-dimethyl-3-[2-[[(3S)-3-piperidyl]amino]-5-(trifluoromethyl)pyrimidin-4-yl]-1H-indole-6-sulfonamide] | 1 to 5 | 0.2 to 5 |  | < 0.02 | 0.2 to 5 | 0.2 to 5 | 
8 | Cc1noc(C)c1-c1ccc2c(-c3nc(N[C@H]4CCCNC4)ncc3C(F)(F)F)c[nH]c2c1 [Compound 330] |  | 0.2 to 5 |  | < 0.02 | 0.2 to 5 | 0.2 to 5 | < 0.1
9 | Cn1cc(-c2ccc3c(-c4nc(NC5CCCNC5)ncc4C(F)(F)F)c[nH]c3c2)ccc1=O (stereo not shown) [Compound 321] | 0.1 to 1 | 0.2 to 5 |  | < 0.02 | > 5 | > 5 | 
10 | FC(F)(F)c1cnc(N[C@H]2CCCNC2)nc1-c1c[nH]c2cc(-c3nccs3)ccc12 [Compound 332] |  | 0.2 to 5 |  | < 0.02 | 0.2 to 5 | 0.2 to 5 | < 0.1
11 | CS(=O)(=O)c1ccc2c(-c3nc(N[C@H]4CCCN(C5CC5)C4)ncc3C(F)(F)F)c[nH]c2c1 [Compound 381, N-[(3S)-1-cyclopropyl-3-piperidyl]-4-(6-methylsulfonyl-1H-indol-3-yl)-5-(trifluoromethyl) pyrimidin-2-amine] | 1 to 5 | 0.2 to 5 |  | 0.02 to 0.2 | > 5 | > 5 | 
12 | N#Cc1ccc2c(-c3nc(N[C@@H]4CNCC[C@H]4F)ncc3C(F)(F)F)c[nH]c2c1 [Compound 351] | < 0.1 | 0.2 to 5 |  | < 0.02 | 0.2 to 5 | 0.2 to 5 | 
13 | CCN1CCC[C@H](Nc2ncc(C(F)(F)F)c(-c3c[nH]c4cc(S(C)(=O)=O)ccc34)n2)C1 [Compound 298] | 0.1 to 1 | 0.2 to 5 |  | < 0.02 | > 5 | 0.2 to 5 | 
14 | N#Cc1ccc2c(-c3nc(N[C@@H]4CNCC[C@H]4O)ncc3C(F)(F)F)c[nH]c2c1 [Compound 355] | 0.1 to 1 | 0.2 to 5 |  | 0.02 to 0.2 | > 5 | > 5 | 
15 | OCc1ncccc1-c1ccc2c(-c3nc(N[C@H]4CCCNC4)ncc3C(F)(F)F)c[nH]c2c1 [Compound 323] |  | 0.2 to 5 |  | < 0.02 | > 5 | 0.2 to 5 | 0.1 to 1
16 | FC(F)(F)c1cnc(N[C@H]2CCCNC2)nc1-c1c[nH]c2cc(-c3cccc4cnccc34)ccc12 [Compound 344] |  | 0.2 to 5 |  | 0.02 to 0.2 | > 5 | 0.2 to 5 | 0.1 to 1
17 | O=S(=O)(c1ccc2c(-c3nc(N[C@H]4CCCNC4)ncc3C(F)(F)F)c[nH]c2c1)C(F)F [Compound 375, 4-[6-(difluoromethylsulfonyl)-1H-indol-3-yl]-N-[(3S)-3-piperidyl]-5-(trifluoromethyl)pyrimidin-2-amine] | 0.1 to 1 | 0.2 to 5 |  | < 0.02 | 0.2 to 5 | 0.2 to 5 | 
18 | O=C(c1ccc2c(-c3nc(N[C@H]4CCCNC4)ncc3C(F)(F)F)c[nH]c2c1)N1CC[C@](O)(C(F)(F)F)C1 (single isomer, unassigned) [Compound 299] | 1 to 5 | 0.2 to 5 |  | < 0.02 | 0.2 to 5 | 0.2 to 5 | 
19 | COCn1cc(-c2nc(N[C@H]3CCCNC3)ncc2C(F)(F)F)c2cccc(C#N)c21 [Compound 295] |  | > 5 |  | 0.02 to 0.2 | > 5 | > 5 | 1 to 5
20 | CC1(C)CC[C@H](Nc2ncc(C(F)(F)F)c(-c3c[nH]c4cc(C#N)ccc34)n2)CN1 [Compound 350, (S)-3-(2-((6,6-dimethylpiperidin-3-yl)amino)-5-(trifluoromethyl)pyrimidin-4-yl)-1H-indole-6-carbonitrile] | 0.1 to 1 | 0.2 to 5 |  | 0.02 to 0.2 | > 5 | > 5 | 
21 | CC1(C)CNC[C@@H](Nc2ncc(C(F)(F)F)c(-c3c[nH]c4cc(S(C)(=O)=O)ccc34)n2)C1 [Compound 376, N-[(3S)-5,5-dimethyl-3-piperidyl]-4-(6-methylsulfonyl-1H-indol-3-yl)-5-(trifluoromethyl) pyrimidin-2-amine] | 0.1 to 1 | 0.2 to 5 |  | 0.02 to 0.2 | > 5 | 0.2 to 5 | 
22 | N#Cc1ccc2c(-c3nc(N[C@@H]4CCC5(CCC5)NC4)ncc3C(F)(F)F)c[nH]c2c1 (single isomer, unassigned) [Compound 377] | 0.1 to 1 | 0.2 to 5 |  | < 0.02 | 0.2 to 5 | > 5 | 
23 | CC(=O)c1ccc2c(-c3nc(N[C@H]4CCCNC4)ncc3C(F)(F)F)c[nH]c2c1 [Compound 359, 1-[3-[2-[[(3S)-3-piperidyl]amino]-5-(trifluoromethyl)pyrimidin-4-yl]-1H-indol-6-yl]ethanone] | < 0.1 | 0.2 to 5 |  | < 0.02 | 0.2 to 5 | 0.2 to 5 | 
24 | CCc1cnc(N[C@H]2CCCNC2)nc1-c1c[nH]c2c(S(=O)(=O)C(C)C)cccc12 [Compound 356] |  | > 5 |  | 0.02 to 0.2 | > 5 | > 5 | 0.1 to 1
25 | CC1CCNCC1Nc1ncc(C(F)(F)F)c(-c2c[nH]c3ccccc23)n1 (single isomer, unassigned) [Compound 372] |  | 0.2 to 5 |  | 0.02 to 0.2 | 0.2 to 5 | 0.2 to 5 | 0.1 to 1
26 | CP(C)(=O)c1cccc2c(-c3nc(N[C@H]4CCCNC4)ncc3C(F)(F)F)c[nH]c12 (single isomer, unassigned) [Compound 353] | < 0.1 | 0.2 to 5 |  | < 0.02 | > 5 | 0.2 to 5 | 
27 | CCCc1cnc(N[C@H]2CCCNC2)nc1-c1c[nH]c2c(S(C)(=O)=O)c(C#N)ccc12 [Compound 367, 7-methylsulfonyl-3-[2-[[(3S)-3-piperidyl]amino]-5-propyl-pyrimidin-4-yl]-1H-indole-6-carbonitrile] | 1 to 5 | > 5 |  | 0.02 to 0.2 | > 5 | > 5 | 
